The results in this text go back to US20050191668A1, “Methods of using peroxisome proliferator-activated receptor alpha target genes” (priority 2004, published 2005).

Common to all, as to assay type: cell-based, human
Test [1] relates to Pa13 gene. Description: Pa13 gene expression in SKM cells with siRNA-reduced PPARα expression. To be noted: SKMU cells with reduced PPARα expression. The source says:
(§1) SiRNA oligos specific to PPARα were designed and used to knock-down or reduce the expression level of PPARα in human SKMU cells following procedures known to those skilled in the art (Brummelkamp et al., 2002, Science, 296: 550-553). Four sets of siRNA oligo were originally designed using GenBank accession number S74349 (human peroxisome proliferator activated receptor alpha, cDNA; PPARα) as the template, and the software, Target Finder (Ambion, Austin, Tex.). […] The sequences for the two sets of siRNA correspond to 907 bp to 927 bp (SEQ ID NO: 21, 5′-[…] A) and 1106 bp to 1126 bp of the cDNA (SEQ ID NO: 22, 5′-[…] T) relative to the first nucleotide of the start codon. The oligos were chemically synthesized by Ambion Inc. (Austin, Tex.). The universal negative control siRNA oligo was purchased from Ambion.
(§2) Human primary skeletal muscle cells (hSKM, provided by Cambrex, Md.) were prepared the day before transfection at the density of 4.67×10^4 cells/per 60 mm dish (about 20% confluence). The cells were cultured at 37° C., 5% CO2 for 24 hrs with antibiotics-free SKGM medium (Cambrex, Md.). […]
(§3) Again, total RNA was isolated from the cells and real-time PCR was performed and the expression levels of target genes of interest, such as Pa9, 13 and 21, were quantitatively measured using the RT-PCR technique described in Example 1.

Test [2] concerns Pa13 gene. Description: Pa13 gene expression by real-time RT-PCR in HuH7 hepatocytes. To be noted: about 20-24 h, vehicle control = 100. The source says: (§4) Human hepatocyte HuH7 cells, which are epithelial cells of liver, were obtained from Japan Health Science Research Resources Bank (Osaka, Japan). Human primary adipocytes, which are connective tissue cells specialized for the synthesis and storage of fat, were obtained from Zen-Bio, Inc (Research Triangle Park, NC). Human primary skeletal muscle cells (SKMC) were obtained from Cambrex Bio Science (Walkersville, Md.). PPARα agonists, Wy14643 (Agatha, et al, 2000, Archives of Biochemistry and Biophysics 380:353-359) and fenofibrates were obtained from Cayman Chemical (Ann Arbor, Mich.) and Sigma (St Louis, Mo.), respectively.
(§5) Human HuH7 cells were cultured in Dulbecco's Modified Eagle Medium with 10% Fetal Bovine Serum (Gibco, N.Y.). Cells were treated with charcoal-stripped, delipidated calf serum (5%) (Sigma, St Louis, Mo.) for about 4-18 hours. Then, cells were treated with different concentrations of PPARα agonist (Wy14643 or fenofibrates) for about 20-24 h. Human SKM cells were cultured in Skeletal Muscle Growth Medium (Cambrex Bio Science, Walkersville, Md.), and were treated with different concentrations of PPARα agonist (Wy14643 or fenofibrates) for about 18-20 hours. Human primary adipocytes were cultured in Preadipocyte Medium, (Cat #PM—1, Zen-Bio, Inc., Research Triangle Park, NC), and were treated with different concentrations of PPARα agonist (Wy14643 or fenofibrates) for about 18-20 hours.
(§6) Total RNA was purified from cultured cells following the protocol provided by the manufacturer (Trizon method, Invitrogen Inc. Ca). The polymerase chain reaction (PCR) primers and fluorescent probes (TagMan probes) for Pa9, Pa13, and Pa21 were designed from GenBank sequences of accession numbers W30988, AB000584, and NM_080725, respectively. The primers and probes were designed using the software PrimerDesign (Applied Biosystems, Foster City, Calif.). The PCR primers for Pa9 were SEQ ID NO: 7, (5-[…]) and SEQ ID NO: 8 (5-[…]). […] The PCR primers for Pa13 were SEQ ID NO: 10 (5-[…], T) and SEQ ID NO: 11 (5-[…] T). […] The PCR primers for Pa21 were SEQ ID NO: 13 (5-[…] C) and SEQ ID NO: 14 (5-[…]). […] All primers and probes were synthesized by Keystone Labs (Camarillo, Calif.).
(§7) Reverse transcription (RT) and PCR were conducted in one step using “One-Step RT-PCR Master Mix Reagent” kit (Applied Biosystems, Foster City, Calif.) in ABI PRISM 7700 Sequence Detection System (Applied Biosystems). Each reaction was performed in a total volume of 25 μl containing 40 ng of total RNA. The reaction condition was: 48° C. for 30 minutes, 60° C. for 30 minutes, 94° C. for 5 minutes, followed by 40 cycles of 94° C. for 20 seconds and 60° C. for 1 minute. The primers for 18S ribosomal RNA were developed and provided by Applied Biosystems. The measurement of human 18S ribosomal RNA was used as an internal control for normalization of measuring and loading errors. PCR data were collected by Ct value (the cycle number at which logarithmic PCR plots cross a calculated threshold line) according to the manufacturer's guidelines and the value was used to determine the Δ^Ct (Ct of the target gene minus the Ct of 18S ribosomal RNA controls). Relative mRNA level was calculated using the equation 2^−ΔΔCt as described previously (Heid et al., 1996, Genome Res. 6:986-994).

Test [3] concerns Pa21 gene. The test is described as follows: Pa21 gene expression by real-time RT-PCR in HuH7 hepatocytes. To be noted: about 20-24 h, vehicle control = 100.
Excerpt: as §4, §5, §6, §7
On the technique in general: In qPCR the cycle at which signal appears reflects the starting amount.

For test [4], the system named is Pa21 gene. The test is described as follows: Pa21 gene expression in SKM cells with siRNA-reduced PPARα expression. The settings on record: SKMU cells with reduced PPARα expression.
Excerpt: as §1, §2, §3

For test [5], the system named is Pa21 gene. Description: Pa21 gene expression by real-time RT-PCR in primary skeletal muscle cells. To be noted: about 18-20 hours, vehicle control = 100.
Excerpt: as §4, §5, §6, §7

With `Cc1cccc(Nc2cc(Cl)nc(SCC(=O)O)n2)c1C` [Wy14643], the “induction of Pa13 gene expression (FIG. 6)” value in the test on Pa13 gene [1] is on record as “no detectable induction”. Further, the “Pa13 (N26311) gene expression, Percentage ± SE (%)” value with Pa13 gene [2] (3 uM) is listed as 70 ± 28%; in the test on Pa13 gene [2] (10 uM), 100 ± 4%; in the test on Pa13 gene [2] (30 uM), 140 ± 26.4%; in the test with Pa13 gene [2] (100 uM), 130 ± 17.7%; in the test with Pa13 gene [2] (300 uM), 720 ± 36.4%. Further, the “Pa21 (H4960) gene expression, Percentage ± SE (%)” value in the test with Pa21 gene [3] (3 uM) is 145.5 ± 21.9%; in the test on Pa21 gene [3] (10 uM) it was 163.6 ± 35%; in the test with Pa21 gene [3] (30 uM), 372.7 ± 17.8%; in the test on Pa21 gene [3] (100 uM), 227.3 ± 14.8%; with Pa21 gene [3] (300 uM), 481.8 ± 12.1%; in the test with Pa21 gene [5] (3 uM) it was 130 ± 23.8%. The “Pa21 (H4960) gene expression, Percentage ± SE (%)” value in the test on Pa21 gene [5] (10 uM) worked out at 200 ± 48.5%; in the test with Pa21 gene [5] (30 uM) it was 310 ± 1.9%; in the test on Pa21 gene [5] (100 uM) it was 560 ± 16.6%; in the test with Pa21 gene [5] (300 uM) it was 2250 ± 11.7%. Besides, in the test with Pa21 gene [4], the “induction of Pa21 gene expression (FIG. 7)” value is given as “no detectable induction”.
